In brackets after ≈: the same amount, converted by molar mass. Entries after “also recorded” stand apart in the source; their conditions may differ. Like-named read-outs stand apart in the source and are kept apart here.
Legend:
S. aureus FDA 209P = experiment: Minimum inhibitory concentration, agar dilution, S. aureus FDA 209P; type: cell-based, Staphylococcus aureus FDA 209P; details: for MIC: Staphylococcus aureus, FDA209P, agar dilution, average of duplicate determinations; for antibacterial activity in words, S. aureus FDA 209P: compared with corresponding phloroglucides
Protocol: (§1) Determination of Minimum Inhibitory Concentrations. The screening experiments in vitro were carried out for antibacterial activities of the phloroglucide analogs II-VII, XII-XIV, bifunctional cephalosporins VIII and IX, as well as 7-(phloroglucidamido)cephalosporins X and XI. Cephalosporins XV and XVI were used as the reference compounds. The lowest concentrations of antibiotics needed for prevention of visible growth of microorganisms; reported as the average values of duplicate determinations. Minimum inhibitory concentrations (MIC) values obtained by use of an agar dilution method whereby organisms were deposited onto medicated agar plates by the replication device of Steers et al [Steers, F. et al. Antibiot. Chemother. 1959, 9, 307].

S. aureus 95 = experiment: Minimum inhibitory concentration, agar dilution, S. aureus 95; type: cell-based, Staphylococcus aureus 95; details: for activity against β-lactamase producing microorganisms, in words: i.e., S. aureus 95
Protocol: as §1

C. albicans = experiment: Minimum inhibitory concentration, agar dilution, C. albicans; type: cell-based; details: Candida albicans, read-out: Minimum Inhibitory Concentration (MIC), C. albicans
Protocol: as §1

Ps. aerureus 1101-75 = experiment: Minimum inhibitory concentration, agar dilution, Ps. 1101-75; type: cell-based, Pseudomonas aeruginosa
Protocol: as §1

PS. aerureus 18S-H = experiment: Minimum inhibitory concentration, agar dilution, Ps. 18S-H; type: cell-based, Pseudomonas aeruginosa 18S-H; details: Pseudomonas aeruginosa, 18SH, read-out: Minimum Inhibitory Concentration (MIC), PS. aerureus 18S-H
Protocol: as §1

[1] = tested on: pathogenic microorganisms; experiment: Antibacterial activity in vitro (statements in words); type: cell-based
Protocol: as §1

[2] = target: T1, β-lactamase of S. aureus 95 (Staphylococcus aureus, UniProt P00807); experiment: Minimum protective concentration against β-lactamase of S. aureus 95; type: biochemical; details: protection of chromogenic cephem indicator from hydrolysis within 40 min, average of duplicates
T1 construct: chromogenic cephalosporin (nitrocefin type) hydrolysis
T1 sequence (P00807 25-281): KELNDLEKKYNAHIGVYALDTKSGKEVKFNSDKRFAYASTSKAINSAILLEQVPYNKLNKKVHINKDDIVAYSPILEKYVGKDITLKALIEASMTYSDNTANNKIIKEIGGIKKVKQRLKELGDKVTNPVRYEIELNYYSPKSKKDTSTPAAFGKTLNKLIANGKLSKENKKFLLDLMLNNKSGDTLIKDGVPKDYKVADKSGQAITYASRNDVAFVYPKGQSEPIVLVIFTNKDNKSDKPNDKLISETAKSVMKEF
Text: (§2) Determination of Minimum Protective Concentrations. The β-lactamase inhibitory properties of cephalosporin-phloroglucide esters VIII and IX as well as 7-(phloroglucidamido)cephalosporins X and XI were studied. Cephalosporins XV and XVI as well as clavulanic acid (XVII) were used in vitro as the reference compound. The average values of duplicate determinations and the ability of compounds to inhibit the hydrolysis of 3-[E-(2,4-dinitro)styryl]-(6R,7R)-7-(2-thienylacetamido)-3-cephem-4-carboxylic acid by β-lactamases from S. aureus 95 and Ps. aeruginosa 18S-H. Minimum protective concentrations (MPC) values were determined by the procedure of O'Callaghan ct al. [O'Callaghan C. H. ct al. Antimicrob. Agents Chemother. 1972, 1, 283] and are the lowest concentrations of β-lactams needed to protect the indicator from hydrolysis by β-lactamases under standard test conditions within 40 min. The hydrolysis of indicator was evidenced by the appearance of a distinct red color.

[3] = tested on: β-lactamase of PS. aeruginosa 18S-H; experiment: Minimum protective concentration against β-lactamase of Ps. aeruginosa 18S-H; type: biochemical; details: protection of chromogenic cephem indicator from hydrolysis within 40 min, average of duplicates
Text: as §2

[4] = tested on: β-lactamases of S. aureus 95 and Ps. aeruginosa 18S-H; experiment: Behaviour towards β-lactamases (statements in words); type: biochemical
Text: as §2

[5] = Stability in the absence of β-lactamases in phosphate buffer solution; type: physicochemical; details: 37° C., pH 6.5
[6] = Staphylococcus aureus, 95, agar dilution, average of duplicates, β-lactamase-producing, methicillin resistant organism, read-out: Minimum Inhibitory Concentration (MIC), S. aureus 95
[7] = agar dilution, average of duplicate determinations
[8] = Pseudomonas aeruginosa, 110175, agar dilution, average of duplicate determinations, read-out: Minimum Inhibitory Concentration (MIC), Ps. aerureus 1101-75

Row | SMILES | MIC (S. aureus FDA 209P) [µg/mL] | MIC (S. aureus 95; [6]) [µg/mL] | MIC (C. albicans; [7]) [µg/mL] | MIC (Ps. aerureus 1101-75; [8]) [µg/mL] | MIC (PS. aerureus 18S-H) [µg/mL] | antibacterial activity in words [1] | antibacterial activity in words, S. aureus FDA 209P (S. aureus FDA 209P) | Minimum Protective Concentration (MPC), β-lactamase of S. aureus 95 [2] [µg/mL] | Minimum Protective Concentration (MPC), β-lactamase of PS. aeruginosa 18S-H [3] [µg/mL] | hydrolysis by / stability towards β-lactamases, in words [4] | β-lactamase inhibitory property, in words [4] | MIC (S. aureus 95; Staphylococcus aureus, 95, read-out: Minimum Inhibitory Concentration (MIC), S. aureus 95) [µg/mL] | activity against β-lactamase producing microorganisms, in words (S. aureus 95) | MIC (C. albicans) [µg/mL] | MIC (Ps. aerureus 1101-75; Pseudomonas aeruginosa, 110175, read-out: Minimum Inhibitory Concentration (MIC), Ps. aerureus 1101-75) [µg/mL] | β-lactam ring destructed (time) [5] [h]
1 | O=C(O)c1cccc(Cc2cc(Cl)cc(Cc3ccccc3O)c2O)c1O [II, 2-(3-Carboxy-2-hydroxybenzyl)-6-(2-hydroxybenzyl)-4-chlorophenol] | 0.86 (≈ 2.23 µM) | 0.43 (≈ 1.12 µM) | 1.43 (≈ 3.72 µM) | 0.02 (≈ 0.052 µM) | 0.1 (≈ 0.26 µM) | more potent antimicrobial activity than that of the model phloroglucide (XXI) | – | – | – | – | – | – | – | – | – | –
2 | O=C(O)c1cccc(C(=O)c2cc(Cl)cc(C(=O)c3ccccc3O)c2O)c1O [III, 2-(3-Carboxy-2-hydroxybenzoyl)-6-(2-hydroxybenzoyl)-4-chlorophenol] | 3.67 (≈ 8.89 µM) | 0.98 (≈ 2.37 µM) | 3.7 (≈ 8.96 µM) | 0.17 (≈ 0.412 µM) | 0.26 (≈ 0.63 µM) | its antimicrobial property decreased; also recorded: In comparison with dicarboxylic acid derivative (XV), mono-carboxylic acid (III) however exhibited greater potency; also recorded: lower efficacy than phenolic acid (II) and phenol (XII) against pathogenic microorganisms | – | – | – | – | – | – | – | – | – | –
3 | COC(=O)c1cccc(Cc2cc(Cl)cc(Cc3ccccc3O)c2O)c1O [IV] | 2.98 (≈ 7.47 µM) | 4.65 (≈ 11.7 µM) | 117 (≈ 294 µM) | 1.25 (≈ 3.13 µM) | 1.56 (≈ 3.91 µM) | lower efficacy than phloroglucides (II) and (III) as well as the bifunctional cephalosporins (VIII) and (IX) | – | – | – | – | – | – | – | – | – | –
4 | O=C(COc1ccccc1)N[C@@H]1C(=O)N2C(C(=O)O)=C(COC(=O)c3cccc(C(=O)c4cc(Cl)cc(C(=O)c5ccccc5O)c4O)c3O)CS[C@H]12 [IX, 3-{3-[5-Chloro-2-hydroxy-3-(2-hydroxybenzoyl)benzoyl]-2-hydroxy-benzoyloxymethyl}-7-phenoxyacetamido-3-cephem-4-carboxylic Acid] | 0.9 (≈ 1.19 µM) | 2.1 (≈ 2.77 µM) | 6.47 (≈ 8.52 µM) | 1.37 (≈ 1.8 µM) | 3.13 (≈ 4.12 µM) | – | greater antibacterial activity than the corresponding phloroglucides (II) and (III) against S. aureus FDA 209P | 4.81 | 5.98 | underwent hydrolysis to liberate their phloroglucidc components | – | – | – | – | – | –
5 | O=C(COc1ccccc1)N[C@@H]1C(=O)N2C(C(=O)O)=C(COC(=O)c3cccc(Cc4cc(Cl)cc(Cc5ccccc5O)c4O)c3O)CS[C@H]12 [VIII, 3-{3-[5-Chloro-2-hydroxy-3-(2-hydroxybenzyl)benzyl]-2-hydroxy-benzoyloxymethyl}-7-phenoxyacetamido-3-cephem-4-carboxylic Acid] | 0.41 (≈ 0.561 µM) | 1.2 (≈ 1.64 µM) | 5.86 (≈ 8.01 µM) | 0.98 (≈ 1.34 µM) | 1.24 (≈ 1.7 µM) | broadened spectrum of antibacterial activity in vitro; also recorded: less activity against other pathogenic microorganisms; also recorded: phloroglucide-like antibacterial activity | greater antibacterial activity than the corresponding phloroglucides (II) and (III) against S. aureus FDA 209P | 7.08 | 6.74 | underwent hydrolysis to liberate their phloroglucidc components | – | – | – | – | – | –
6 | CNC(=O)c1cccc(C(=O)c2cc(Cl)cc(C(=O)c3ccccc3O)c2O)c1O [VII] | 18.1 (≈ 42.6 µM) | 17.8 (≈ 41.7 µM) | 120 (≈ 281 µM) | 6.03 (≈ 14.2 µM) | 8.32 (≈ 19.5 µM) | lower efficacy than phloroglucides (II) and (III) as well as the bifunctional cephalosporins (VIII) and (IX) | – | – | – | – | – | – | – | – | – | –
7 | CNC(=O)c1cccc(Cc2cc(Cl)cc(Cc3ccccc3O)c2O)c1O [VI] | 7.35 (≈ 18.5 µM) | 6.63 (≈ 16.7 µM) | 114 (≈ 287 µM) | 3.28 (≈ 8.24 µM) | 4.7 (≈ 11.8 µM) | lower efficacy than phloroglucides (II) and (III) as well as the bifunctional cephalosporins (VIII) and (IX) | – | – | – | – | – | – | – | – | – | –
8 | COC(=O)c1cccc(C(=O)c2cc(Cl)cc(C(=O)c3ccccc3O)c2O)c1O [V] | 14.7 (≈ 34.4 µM) | 15.3 (≈ 35.9 µM) | 125 (≈ 294 µM) | 5.78 (≈ 13.5 µM) | 4.3 (≈ 10.1 µM) | lower efficacy than phloroglucides (II) and (III) as well as the bifunctional cephalosporins (VIII) and (IX) | – | – | – | – | – | – | – | – | – | –
9 | CC(=O)OCC1=C(C(=O)O)N2C(=O)[C@@H](NC(=O)c3cccc(Cc4cc(Cl)cc(Cc5ccccc5O)c4O)c3O)[C@H]2SC1 [X, 7-{3-[5-Chloro-2-hydroxy-3-(2-hydroxybenzyl)benzyl]-2-hydroxy-benzamido}cephalosporanic Acid] | 0.35 (≈ 0.548 µM) | 0.28 (≈ 0.438 µM) | 28.3 (≈ 44.3 µM) | 0.28 (≈ 0.438 µM) | 0.45 (≈ 0.704 µM) | notable antibacterial activity; also recorded: potent phloroglucide-like antibacterial activity | – | 95.20 | 99.78 | stability towards β-lactamases | did not exhibit notable β-lactamase inhibitory property | – | – | – | – | –
10 | CC(=O)OCC1=C(C(=O)O)N2C(=O)[C@@H](NC(=O)c3cccc(C(=O)c4cc(Cl)cc(C(=O)c5ccccc5O)c4O)c3O)[C@H]2SC1 [XI, 7-{3-[5-Chloro-2-hydroxy-3-(2-hydroxybenzoyl)benzoyl]-2-hydroxy-benzamido}cephalosporanic Acid] | 0.78 (≈ 1.17 µM) | 0.45 (≈ 0.675 µM) | 14.2 (≈ 21.3 µM) | 0.79 (≈ 1.18 µM) | 0.38 (≈ 0.57 µM) | notable antibacterial activity | – | 88.68 | 93.45 | stability towards β-lactamases | did not exhibit notable β-lactamase inhibitory property | – | – | – | – | –
11 | Oc1ccccc1Cc1cc(Cl)cc(Cc2ccccc2O)c1O [XII, reference compound] | 1.2 (≈ 3.52 µM) | 0.58 (≈ 1.7 µM) | 2.06 (≈ 6.04 µM) | 0.07 (≈ 0.205 µM) | 0.18 (≈ 0.528 µM) | – | – | – | – | – | – | – | – | – | – | –
12 | O=C(O)c1cccc(Cc2cc(Cl)cc(Cc3cccc(C(=O)O)c3O)c2O)c1O [XIII, reference compound] | 3.25 (≈ 7.58 µM) | 4.15 (≈ 9.68 µM) | 16.5 (≈ 38.5 µM) | 0.86 (≈ 2.01 µM) | 1.32 (≈ 3.08 µM) | – | – | – | – | – | – | – | – | – | – | –
13 | O=C(O)c1cccc(C(=O)c2cc(Cl)cc(C(=O)c3cccc(C(=O)O)c3O)c2O)c1O [XIV, reference compound] | 18.2 (≈ 40 µM) | 22.2 (≈ 48.6 µM) | 19.1 (≈ 41.9 µM) | 2.54 (≈ 5.56 µM) | 3.06 (≈ 6.7 µM) | – | – | – | – | – | – | – | – | – | – | –
14 | CC(=O)OCC1=C(C(=O)O)N2C(=O)[C@@H](NC(=O)COc3ccccc3)[C@H]2SC1 [XV, reference compound] | 0.7 (≈ 1.72 µM) | – | – | – | > 145 | – | – | 1.35 | 0.97 | susceptible to hydrolysis by β-lactamases | – | > 145 | did not show significant activity | > 145 | > 145 | –
15 | CO/N=C(\C(=O)N[C@@H]1C(=O)N2C(C(=O)O)=C(COC(C)=O)CS[C@H]12)c1csc(N)n1 [XVI, reference compound] | 1.7 (≈ 3.73 µM) | 40.6 (≈ 89.1 µM) | > 145 | 69.9 (≈ 153 µM) | 135 (≈ 296 µM) | – | – | 2.72 | 1.03 | susceptible to hydrolysis by β-lactamases | – | – | did not show significant activity | – | – | –
16 | O=C(O)[C@H]1/C(=C/CO)O[C@@H]2CC(=O)N21 [XVII, clavulanic acid, reference compound] | – | – | – | – | – | – | – | 0.38 | 3.00 | – | – | – | – | – | – | ≤ 13

Source: patent US6288265A, “Phloroglucidic acid and derivatives as antibacterial agents” (National Science Council, priority 1999, dated 2001)
